This note sets out measurements from patent US20180085340A1, “METHOD FOR TREATING MELANOMA” (TCI CO., LTD, priority 2016, published 2018).

The subject of this experiment is Homo sapiens skin malignant melanoma cells (A375.S2 cell line). Kind of experiment: MTT assay of survival of malignant melanoma cells. The experiment is classed as cell-based. As to conditions: for Relative survival rate (%) / Average of absorbance values (n = 4): 48 hours; for Relative survival rate (%): relative to control group, n = 4; for Average of absorbance values (n = 4): OD at 570 nm, MTT. The protocol:
Homo sapiens skin malignant melanoma cells (A375.S2 cell line) were cultivated for 24 hours, and then divided into four groups (5×10^3 cells for each group). The four groups were respectively cultivated in the following medium for 48 hours: • 1. Control group: a MEM-NEAA medium contains 1 mmol of sodium pyruvate and 10% of FBS. • 2. High-dose group: a MEM-NEAA medium contains 1 mmol of sodium pyruvate, 10% of FBS and 1 mg/ml of the compound of formula (I) obtained from Example 1. • 3. Middle-dose group: a MEM-NEAA medium contains 1 mmol of sodium pyruvate, 10% of FBS and 0.5 mg/ml of the compound of formula (I) obtained from Example 1. • 4. Low-dose group: a MEM-NEAA medium contains 1 mmol of sodium pyruvate, 10% of FBS and 0.25 mg/ml of the compound of formula (I) obtained from Example 1.
Thereafter, the absorbance value (optical density, OD) at 570 nm of each group was determined by the MTT assay.
Steps of the above cultivation and MTT assay were repeated four times. The absorbance values were averaged in each group, and the result of the control group was served as a basis for calculating the relative survival rate of other groups.

With `COc1cc([C@@H]2Oc3c(OC)cc(/C=C/C(=O)NCCc4ccc(O)cc4)cc3[C@@H]2C(=O)NCCc2ccc(O)cc2)ccc1O` [compound of formula (I), N-trans-grossaminde], the “Relative survival rate (%)” value runs as follows: (0.25 mg/ml compound in medium) 93.67%; (0.5 mg/ml compound in medium) 22.14%; (1 mg/ml compound in medium) 12.24%. Further, the “Average of absorbance values (n = 4)” value is listed as 0.733 (0.25 mg/ml compound), 0.1732 (0.5 mg/ml compound) and 0.09575 (1 mg/ml compound). Besides, the “induction of apoptosis of malignant melanoma cells” value (conclusion drawn from MTT survival rates) is “effectively induce apoptosis”.
